Measured values published in PubChem BioAssay AID2060354 (Molecular Pharmacology Branch, DTP, NCI, 2025).

Tested on: 519858-162-T-J1-PDC spheroid growth inhibition
Experiment: Anticancer human tumor 519858-162-T-J1-PDC patient-derived colon adenocarcinoma cell line growth inhibition [TAK]
Conditions: spheroids with HUVEC and MSC; for IC50: curve of first compound; for viability, T/C: stronger effect = lower value
Summary of the method: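 Tumor cells were grown as spheroids with HUVEC and hMSC (60:25:15) and treated with targeted agents combined with TAK-243 or ipatasertib. Drugs were tested in half-log steps down from near the clinical Cmax, or from 10 microM where Cmax was unknown.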
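Note: spheroids exposed to drugs for 7 days.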

Question: Which IC50 (second compound 0.3 µM) does the source give for `CC(C)n1nc(-c2ccc3oc(N)nc3c2)c2c(N)ncnc21` + CC(C)NCC(C(=O)N1CCN(c2ncnc3c2C(C)CC3O)CC1)c1ccc(Cl)cc1 here?
Answer: > 100 nM

Question: What about the IC50 (second compound 0.949 µM) of the same molecule?
Answer: > 100 nM

Question: What about the IC50 (second compound 3 µM) of the same molecule?
Answer: > 100 nM

Question: And the IC50 (second compound 9.49 µM)?
Answer: > 100 nM

Question: And the IC50 (second compound 30 µM)?
Answer: > 100 nM

Question: What about the viability, T/C (second compound 0.3 µM, first compound 0.000316 µM) of the same molecule?
Answer: 110%

Question: What about the viability, T/C (second compound 0.3 µM, first compound 0.001 µM) of the same molecule?
Answer: 78.7%

Question: What about the viability, T/C (second compound 0.3 µM, first compound 0.00316 µM) of the same molecule?
Answer: 89.7%

Question: What about the viability, T/C (second compound 0.3 µM, first compound 0.01 µM) of the same molecule?
Answer: 89.7%

Question: What about the viability, T/C (second compound 0.3 µM, first compound 0.0316 µM) of the same molecule?
Answer: 93.8%

Question: And the viability, T/C (second compound 0.3 µM, first compound 0.1 µM)?
Answer: 68.1%

Question: And the viability, T/C (second compound 0.949 µM, first compound 0.000316 µM)?
Answer: 85.7%

Question: What about the viability, T/C (second compound 0.949 µM, first compound 0.001 µM) of the same molecule?
Answer: 88.2%

Question: And the viability, T/C (second compound 0.949 µM, first compound 0.00316 µM)?
Answer: 107%

Question: And the viability, T/C (second compound 0.949 µM, first compound 0.01 µM)?
Answer: 83.8%

Question: And the viability, T/C (second compound 0.949 µM, first compound 0.0316 µM)?
Answer: 90%

Question: And the viability, T/C (second compound 0.949 µM, first compound 0.1 µM)?
Answer: 71.1%

Question: What about the viability, T/C (second compound 3 µM, first compound 0.000316 µM) of the same molecule?
Answer: 80.5%

Question: What about the viability, T/C (second compound 3 µM, first compound 0.001 µM) of the same molecule?
Answer: 102%

Question: What about the viability, T/C (second compound 3 µM, first compound 0.00316 µM) of the same molecule?
Answer: 89.3%

Question: And the viability, T/C (second compound 3 µM, first compound 0.01 µM)?
Answer: 83.9%

Question: And the viability, T/C (second compound 3 µM, first compound 0.0316 µM)?
Answer: 71.4%

Question: What about the viability, T/C (second compound 3 µM, first compound 0.1 µM) of the same molecule?
Answer: 72.2%

Question: What about the viability, T/C (second compound 9.49 µM, first compound 0.000316 µM) of the same molecule?
Answer: 81.9%

Question: And the viability, T/C (second compound 9.49 µM, first compound 0.001 µM)?
Answer: 90.1%

Question: What about the viability, T/C (second compound 9.49 µM, first compound 0.00316 µM) of the same molecule?
Answer: 84.1%

Question: And the viability, T/C (second compound 9.49 µM, first compound 0.01 µM)?
Answer: 93.7%

Question: What about the viability, T/C (second compound 9.49 µM, first compound 0.0316 µM) of the same molecule?
Answer: 74.1%

Question: And the viability, T/C (second compound 9.49 µM, first compound 0.1 µM)?
Answer: 73.9%

Question: What about the viability, T/C (second compound 30 µM, first compound 0.000316 µM) of the same molecule?
Answer: 107%

Question: And the viability, T/C (second compound 30 µM, first compound 0.001 µM)?
Answer: 80.2%

Question: And the viability, T/C (second compound 30 µM, first compound 0.00316 µM)?
Answer: 105%

Question: And the viability, T/C (second compound 30 µM, first compound 0.01 µM)?
Answer: 79%

Question: And the viability, T/C (second compound 30 µM, first compound 0.0316 µM)?
Answer: 67.1%

Question: And the viability, T/C (second compound 30 µM, first compound 0.1 µM)?
Answer: 72.2%
